This note sets out measurements from patent US20260125346A1, “Isoquinolinone Derivatives and 4H-Quinolizinone Derivatives and Pharmaceutical Compositions Thereof for the Treatment of Disease” (BeOne Medicines I GmbH, priority 2023, published 2026).

Experiment [1] addresses PI3Kα (p110[H1047R]/p85) kinase (Homo sapiens, UniProt P42336, H1047R). Nature of the experiment: PI3Kα (p110[H1047R]/p85) kinase ADP-Glo Assay. The class given is biochemical. Particulars: 25 uM ATP; for selectivity: WT/H1047R: ADP-Glo Assay IC50 ratio. Put shortly:
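ADP-Glo luminescence tracked ADP formed by the mutant p110α(H1047R)/p85 complex during a 120 min room-temperature reaction with 25 µM ATP and 5.35 µg/ml PI(4,5)P2:PS lipid substrate, started after 30 min enzyme–compound–substrate pre-incubation (compound […], 50 mM HEPES pH 7.5). IC50 via four-parameter logistic equation.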
A general note: ADP-Glo turns the ADP formed in a reaction into a luminescent signal.

For experiment [2], the system named is PI3Kα H1047R mutated cell line T-47D. Nature of the experiment: Phospho-AKT (Ser473) Inhibition Assay (HTRF), T-47D. The conditions noted are these: for IC50: Homo sapiens, T47D, T-47D, 1 hour treatment, read-out: p-AKT Inhibition assay (S473) IC50 T-47D; for Selectivity: SK-BR-3/T-47D (p-AKT): p-AKT (S473) IC50 ratio. The class given is cell-based. Put shortly:
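Cells seeded overnight in insulin-supplemented MEM, then treated 1 h with 11-point 1:3 compound dilutions (10 μM to 0.1 nM final, 0.1% DMSO). Lysates assayed for phospho-AKT Ser473 by HTRF; IC50 from 4-parameter logistic fit, normalised to DMSO (max) and 10 μM GDC0077 (min).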
Background: Time-resolved FRET reads energy transfer from a long-lived donor to a nearby acceptor.

The subject of experiment [3] is PI3Kα H1047R mutated cell line T-47D cells. Nature of the experiment: Cell Proliferation Assay (CellTiter-Glo), T-47D. The experiment is classed as cell-based. The conditions noted are these: for IC50: Homo sapiens, T47D, 72 h, T-47D, 3 days treatment; for Selectivity: SK-BR-3/T-47D (cell proliferation): cell proliferation IC50 ratio. In outline:
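T-47D cells seeded overnight at 3×10^3/well, then exposed 3 days to 9-point 1:3 dilutions, final […] to 1 nM in 0.1% DMSO. CellTiter-Glo luminescence; relative IC50 from percent inhibition versus medium-only and 0.1% DMSO controls, 4-parameter logistic fit.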
A general note: In ATP-based viability assays light output follows the ATP content of the culture.

Chain of PI3Kα (p110[H1047R]/p85) kinase (P42336 whole entry H1047R): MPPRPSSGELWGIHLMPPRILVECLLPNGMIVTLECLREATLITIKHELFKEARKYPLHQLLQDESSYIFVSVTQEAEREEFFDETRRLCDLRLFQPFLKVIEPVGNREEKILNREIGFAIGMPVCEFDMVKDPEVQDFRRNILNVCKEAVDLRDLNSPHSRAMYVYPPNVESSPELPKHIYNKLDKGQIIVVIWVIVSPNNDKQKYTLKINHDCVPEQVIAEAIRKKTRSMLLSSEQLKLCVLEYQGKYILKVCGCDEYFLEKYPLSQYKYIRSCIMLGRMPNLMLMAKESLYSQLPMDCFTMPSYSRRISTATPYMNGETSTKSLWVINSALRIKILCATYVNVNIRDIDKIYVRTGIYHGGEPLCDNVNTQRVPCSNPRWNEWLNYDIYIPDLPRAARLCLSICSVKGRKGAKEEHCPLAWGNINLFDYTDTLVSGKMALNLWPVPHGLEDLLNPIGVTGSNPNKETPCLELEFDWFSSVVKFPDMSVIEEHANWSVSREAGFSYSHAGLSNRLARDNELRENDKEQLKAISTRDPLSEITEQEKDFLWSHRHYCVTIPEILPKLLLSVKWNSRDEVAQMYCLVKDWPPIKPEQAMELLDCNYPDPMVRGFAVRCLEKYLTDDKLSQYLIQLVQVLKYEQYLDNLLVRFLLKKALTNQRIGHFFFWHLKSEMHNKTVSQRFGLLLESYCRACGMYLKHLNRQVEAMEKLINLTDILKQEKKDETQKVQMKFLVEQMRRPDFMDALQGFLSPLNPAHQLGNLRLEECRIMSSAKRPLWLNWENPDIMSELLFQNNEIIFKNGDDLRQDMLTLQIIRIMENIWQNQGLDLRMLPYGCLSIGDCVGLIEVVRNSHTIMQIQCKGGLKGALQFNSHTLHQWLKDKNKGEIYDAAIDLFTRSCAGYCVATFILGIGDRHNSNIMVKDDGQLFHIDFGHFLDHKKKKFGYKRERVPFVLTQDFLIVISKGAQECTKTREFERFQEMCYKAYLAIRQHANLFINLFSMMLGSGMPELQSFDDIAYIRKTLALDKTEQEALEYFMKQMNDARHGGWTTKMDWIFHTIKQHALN
Chain of PI3Kα (p110[H1047R]/p85) kinase (P27986 whole entry partner): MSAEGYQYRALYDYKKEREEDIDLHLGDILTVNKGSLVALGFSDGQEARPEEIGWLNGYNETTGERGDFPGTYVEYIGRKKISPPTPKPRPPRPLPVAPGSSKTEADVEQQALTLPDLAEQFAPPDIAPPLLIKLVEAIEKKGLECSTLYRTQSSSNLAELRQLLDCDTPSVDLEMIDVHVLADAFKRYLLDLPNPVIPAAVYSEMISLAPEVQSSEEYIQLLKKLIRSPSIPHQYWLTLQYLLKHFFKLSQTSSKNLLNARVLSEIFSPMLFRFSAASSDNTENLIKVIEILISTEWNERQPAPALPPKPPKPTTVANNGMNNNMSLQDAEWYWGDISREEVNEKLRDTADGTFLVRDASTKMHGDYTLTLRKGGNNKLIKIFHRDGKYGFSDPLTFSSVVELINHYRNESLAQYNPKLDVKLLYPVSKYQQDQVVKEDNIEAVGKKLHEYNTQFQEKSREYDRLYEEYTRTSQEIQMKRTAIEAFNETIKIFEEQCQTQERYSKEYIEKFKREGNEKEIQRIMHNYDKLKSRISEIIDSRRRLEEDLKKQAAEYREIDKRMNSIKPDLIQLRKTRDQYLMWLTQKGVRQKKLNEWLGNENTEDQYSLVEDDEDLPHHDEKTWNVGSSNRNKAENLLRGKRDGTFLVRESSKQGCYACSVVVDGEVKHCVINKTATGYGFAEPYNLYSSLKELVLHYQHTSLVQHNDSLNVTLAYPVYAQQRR

Take `Cc1cc(C(C)Nc2ccccc2C(=O)O)c2cc(-c3ccc(F)cc3)n(C3COC3)c(=O)c2c1` (stereo not drawn) [Example 95, 2-((1-(3-(4-fluorophenyl)-7-methyl-2-(oxetan-3-yl)-1-oxo-1,2-dihydroisoquinolin-5-yl)ethyl)amino)benzoic acid]: in experiment [1], the IC50 is 91 nM and the “selectivity: WT/H1047R” value came out at 47.6. In experiment [2], the IC50 came out at 25.6 nM and the “Selectivity: SK-BR-3/T-47D (p-AKT)” value is 52.9. For the same molecule, in experiment [3], the IC50 was 284 nM and the “Selectivity: SK-BR-3/T-47D (cell proliferation)” value is >35.
With `Cc1cc(C(C)Nc2ccccc2C(=O)O)c2cc(-c3ccc(F)cc3)n(C3CCOCC3)c(=O)c2c1` (stereo not drawn) [Example 96, 2-((1-(3-(4-fluorophenyl)-7-methyl-1-oxo-2-(tetrahydro-2H-pyran-4-yl)-1,2-dihydroisoquinolin-5-yl)ethyl)amino)benzoic acid], in experiment [1], the IC50 is 910 nM and the “selectivity: WT/H1047R” value came to 79.1. For the same molecule, in experiment [2], the 50% inhibitory concentration (IC50) amounted to 330 nM and the “Selectivity: SK-BR-3/T-47D (p-AKT)” value is reported as 28.8. Also, in experiment [3], the IC50 was found to be 993 nM and the “Selectivity: SK-BR-3/T-47D (cell proliferation)” value was >10.
With `Cc1cc(C(C)Nc2ccncc2C(=O)O)c2cc(-c3ccc(F)cc3)n(C)c(=O)c2c1` (stereo not drawn) [Example 97, 4-((1-(3-(4-fluorophenyl)-2,7-dimethyl-1-oxo-1,2-dihydroisoquinolin-5-yl)ethyl)amino)nicotinic acid], the values for the IC50 in experiment [1], in experiment [2] and in experiment [3] were > 100000 nM, > 10000 nM and > 10000 nM, respectively.

In general, IC50 refers to the concentration at which inhibition is half-maximal.
